Patent US9156811B2 (priority 2008, dated 2015)

Tests used:
[1] = target: T. brucei N-myristoyl transferase (Trypanosoma brucei brucei (strain 927/4 GUTat10.1), UniProt Q388H8); assay: biochemical; type: biochemical; conditions: value printed without enzyme tag in the NMT Enzyme column (taken as T. brucei NMT); read-out: IC50 (μM) NMT Enzyme
[2] = tested on: Trypanosome (T. brucei brucei); assay: In-vitro antitrypanosomal efficacy assay (cell growth, resazurin); type: cell-based; conditions: T. brucei cell growth

Chain of T. brucei N-myristoyl transferase (Q388H8 1-446): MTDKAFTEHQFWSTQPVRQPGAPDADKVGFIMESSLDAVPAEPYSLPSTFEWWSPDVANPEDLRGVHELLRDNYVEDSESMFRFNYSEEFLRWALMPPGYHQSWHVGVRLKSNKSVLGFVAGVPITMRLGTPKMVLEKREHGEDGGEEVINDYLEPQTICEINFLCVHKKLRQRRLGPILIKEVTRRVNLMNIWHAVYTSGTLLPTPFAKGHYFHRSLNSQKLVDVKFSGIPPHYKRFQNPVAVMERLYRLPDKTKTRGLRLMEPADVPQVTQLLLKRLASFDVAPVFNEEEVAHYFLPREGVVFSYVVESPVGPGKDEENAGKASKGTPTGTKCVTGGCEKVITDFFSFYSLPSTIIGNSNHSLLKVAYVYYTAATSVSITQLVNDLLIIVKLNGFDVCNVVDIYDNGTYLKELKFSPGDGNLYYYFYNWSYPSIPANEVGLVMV

Row | SMILES | IC50 [1] [µM] | ED50 (μM) T. brucei [2] [µM]
1 | COc1ccc(SCc2ccc([S+](=O)([O-])Nc3c(C)nn(C)c3C)cc2)cc1 [DDD73231] | 0.76 | 6.7
2 | Cc1nn(C)c(C)c1N[S+](=O)([O-])c1ccc(N2CCN(C)CC2)nc1 [DDD73236] | 11.9 | >1
3 | Cc1nn(C)c(C)c1N[S+](=O)([O-])c1cc([S+](=O)([O-])c2ccccc2)cs1 [DDD73237] | 10.4 | >1
4 | Cc1nn(C)c(C)c1N[S+](=O)([O-])c1cccc2c(N(C)C)cccc12 [DDD73240] | 1.6 | >1
5 | Cc1nn(C)c(C)c1N[S+](=O)([O-])c1ccc([S+](C)(=O)[O-])cc1 [DDD73241] | 4.2 | >1
6 | CCCn1ncc(N[S+](=O)([O-])c2c(C)cc(OC)c(C)c2C)n1 [DDD73266] | > 100 | >1
7 | CCc1ccc(-c2cc(Cl)c([S+](=O)([O-])Nc3c(C)nn(C)c3C)c(Cl)c2)cc1 [DDD73267] | 44.5 | >1
8 | Cc1nn(C)c(C)c1N[S+](=O)([O-])c1c(Cl)cc(-c2ccco2)cc1Cl [DDD73268] | 3.6 | >1
9 | CCCn1cc(N[S+](=O)([O-])c2c(C)cc(OC)c(C)c2C)nn1 [DDD73269] | > 100 | >1
10 | COc1cc(C)c([S+](=O)([O-])Nc2c(C)nn(C)c2N2CCOCC2)c(C)c1C [DDD73271] | > 100 | >1
11 | Cc1nn(C)c(C)c1N[S+](=O)([O-])c1c(Cl)cc(-c2cccc(OCC(C)C)c2)cc1Cl [DDD73272] | 35 | >1
12 | Cc1nn(C)c(C)c1N[S+](=O)([O-])c1c(Cl)cc(-c2cc3ccccc3o2)cc1Cl [DDD73280] | 20.7 | >1
13 | Cc1nn(C)c(C)c1N[S+](=O)([O-])c1ccc(NCc2ccc3c(c2)OCO3)nc1 [DDD73326] | 1.4 | >1
14 | Cc1nn(C)c(C)c1N[S+](=O)([O-])c1ccc(NCC(O)c2ccccc2)nc1 (stereo not drawn) [DDD73330] | 2.3 | >1
15 | Cc1nn(C)c(C)c1N[S+](=O)([O-])c1ccc(NCc2ccc3[nH]ccc3c2)nc1 [DDD73332] | 0.34 | 3.2
16 | Cc1nn(C)c(C)c1N[S+](=O)([O-])c1ccc(NC(CO)c2ccccc2)nc1 (stereo not drawn) [DDD73333] | > 100 | >1
17 | Cc1nn(C)c(C)c1N[S+](=O)([O-])c1ccc(NCc2ccc(N3CCOCC3)cc2)nc1 [DDD73475] | 0.88 | 10.5
18 | Cc1nn(C)c(C)c1N[S+](=O)([O-])c1ccc(NCc2nc3ccccc3s2)nc1 [DDD73477] | 0.46 | 6.0
19 | Cc1nn(C)c(C)c1N[S+](=O)([O-])c1ccc(NC2Cc3ccccc3C2)nc1 [DDD73478] | 0.36 | 4.5

Row | SMILES | IC50 [1] [µM] | ED50 (μM) T. brucei [2] [µM]
20 | Cc1nn(C)c(C)c1N[S+](=O)([O-])c1c(Cl)cc(C#CC2CCCCC2)cc1Cl [DDD73479] | > 100 | >1
21 | Cc1nn(C)c(C)c1N[S+](=O)([O-])c1ccc(Nc2ccccc2)nc1 [DDD73480] | 4.5 | 22.1
22 | Cc1nn(C)c(C)c1N[S+](=O)([O-])c1ccc(N2CCC(c3ccccc3)CC2)nc1 [DDD73481] | 6.9 | >1
23 | Cc1nn(C)c(C)c1N[S+](=O)([O-])c1ccc(NCCc2ccc(-c3ccccc3)cc2)nc1 [DDD73482] | 60 | >1
24 | Cc1nn(C)c(C)c1N[S+](=O)([O-])c1c(Cl)cc(C#Cc2ccccc2)cc1Cl [DDD73485] | 34.3 | >1
25 | Cc1nn(C)c(C)c1N[S+](=O)([O-])c1ccc(N[C@H](C)c2ccc3ccccc3c2)nc1 [DDD73486] | 2.8 | >1
26 | Cc1nn(C)c(C)c1N[S+](=O)([O-])c1ccc(NCc2ccn(C)n2)nc1 [DDD73487] | 1.2 | 14.2
27 | Cc1nn(C)c(C)c1N[S+](=O)([O-])c1ccc(NCCc2ccc3ccccc3c2)nc1 [DDD73489] | 12.4 | >1
28 | Cc1nn(C)c(C)c1N[S+](=O)([O-])c1ccc(NCC(c2ccccc2)c2ccccc2)nc1 [DDD73492] | 13.6 | >1
29 | Cc1cnn(-c2ccc(CNc3ccc([S+](=O)([O-])Nc4c(C)nn(C)c4C)cn3)cc2)n1 [DDD73493] | 4.4 | >1
30 | Cc1nn(C)c(C)c1N[S+](=O)([O-])c1ccc(NCc2ccc(-n3ccnc3C)cc2)nc1 [DDD73494] | 0.71 | 8.8
31 | Cc1nn(C)c(C)c1N[S+](=O)([O-])c1ccc(NCC(C)c2ccccc2)nc1 (stereo not drawn) [DDD73495] | 0.96 | 7.8
32 | COc1cc(C)c([S+](=O)([O-])Nc2c(C)nn(CCc3ccccc3)c2C)c(C)c1C [DDD73496] | > 100 | >1
33 | COc1cc(C)c([S+](=O)([O-])Nc2c(C)nn(C(C)C)c2C)c(C)c1C [DDD73497] | > 100 | >1
34 | Cc1nn(C)c(C)c1N[S+](=O)([O-])c1ccc(Cn2cnc(-c3ccccc3)c2)cc1 [DDD73503] | 2.5 | 10.5
35 | Cc1nn(C)c(C)c1N[S+](=O)([O-])c1ccc(CNc2ccncn2)cc1 [DDD73504] | 4.2 | >1
36 | Cc1nn(C)c(C)c1N[S+](=O)([O-])c1ccc(CNc2ccc(N3CCOCC3)cc2)cc1 [DDD73506] | 10 | >1
37 | Cc1nn(C)c(C)c1N[S+](=O)([O-])c1ccc(COc2ccc3cc[nH]c3c2)cc1 [DDD73507] | 4.5 | >1

Further lines, with some results ahead:

Row | IC50 [1] [µM] | SMILES | ED50 (μM) T. brucei [2] [µM]
38 | 10.7 | Cc1nn(C)c(C)c1N[S+](=O)([O-])c1ccc(N2CCN(c3ccc(F)cc3)CC2)nc1 [DDD73230] | >1
39 | 1.9 | Cc1nn(C)c(C)c1N[S+](=O)([O-])c1ccc(Cn2ccnc2)cc1 [DDD73232] | 18.6
40 | 2.7 | Cc1nn(C)c(C)c1N[S+](=O)([O-])c1ccc(NCc2cccnc2)nc1 [DDD73233] | >1
41 | 0.63 | Cc1nn(C)c(C)c1N[S+](=O)([O-])c1ccc(CNC(=O)c2ccccc2)s1 [DDD73238] | 6.9
42 | 38.7 | Cc1nn(C)c(C)c1N[S+](=O)([O-])c1ccc(NCCN2CCOCC2)nc1 [DDD73239] | >50
43 | 32 | Cc1nn(C)c(C)c1N[S+](=O)([O-])c1ccc(-c2cc(C(F)(F)F)n(C)n2)s1 [DDD73242] | >1
44 | 5.8 | Cc1nn(C)c(C)c1N[S+](=O)([O-])c1ccc(CN2C(=O)CSC2=O)cc1 [DDD73243] | >1
45 | 22.5 | Cc1nn(C)c(C)c1N[S+](=O)([O-])c1ccc(CNCc2ccccc2)cc1 [DDD73265] | >1
46 | 40 | Cc1nn(C)c(C)c1N[S+](=O)([O-])c1c(Cl)cc(-c2cccc(C(F)(F)F)c2)cc1Cl [DDD73277] | >1
47 | 26.9 | Cc1nn(C)c(C)c1N[S+](=O)([O-])c1c(Cl)cc(-c2cccc3cnccc23)cc1Cl [DDD73278] | >1
48 | 1.1 | Cc1nn(C)c(C)c1N[S+](=O)([O-])c1c(Cl)cc(-c2cccc(C(N)=O)c2)cc1Cl [DDD73279] | 2.1
49 | 2.6 | Cc1nn(C)c(C)c1N[S+](=O)([O-])c1ccc(NCc2cccc(N(C)C)c2)nc1 [DDD73320] | 16.3
50 | 4.3 | COc1cc(OC)cc(-c2cc(Cl)c([S+](=O)([O-])Nc3c(C)nn(C)c3C)c(Cl)c2)c1 [DDD73321] | >1
51 | 0.86 | Cc1nn(C)c(C)c1N[S+](=O)([O-])c1ccc(NC(C)c2ccccc2)nc1 (stereo not drawn) [DDD73322] | 5.4
52 | 12.8 | Cc1nn(C)c(C)c1N[S+](=O)([O-])c1ccc(NCc2ccc(Cl)c(Cl)c2)nc1 [DDD73325] | >1
53 | 2.8 | Cc1nn(C)c(C)c1N[S+](=O)([O-])c1ccc(NCCCc2ccccc2)nc1 [DDD73327] | >1
54 | 2.4 | COc1ccccc1CNc1ccc([S+](=O)([O-])Nc2c(C)nn(C)c2C)cn1 [DDD73328] | 19.1
55 | 1.6 | COc1cccc(CNc2ccc([S+](=O)([O-])Nc3c(C)nn(C)c3C)cn2)c1 [DDD73329] | >1
56 | 6 | Cc1nn(C)c(C)c1N[S+](=O)([O-])c1ccc(N2Cc3ccccc3CC2CO)nc1 (stereo not drawn) [DDD73331] | >1
57 | > 100 | Cc1nn(C)c(C)c1N[S+](=O)([O-])c1ccc(Nc2ccc(Oc3ccccc3)cc2)nc1 [DDD73483] | >1
58 | 0.67 | Cc1nn(C)c(C)c1N[S+](=O)([O-])c1c(Cl)cc(C#Cc2cncn2C)cc1Cl [DDD73484] | 3.1
59 | 28.4 | CCCn1nc(C)c(N[S+](=O)([O-])c2c(C)cc(OC)c(C)c2C)c1C [DDD73491] | >1
60 | > 100 | Cc1nn(C)c(C)c1N[S+](=O)([O-])c1ccc(COc2ccc(C(C)(C)c3ccccc3)cc2)cc1 [DDD73499] | >1
61 | 19 | COc1cc(NCc2ccc([S+](=O)([O-])Nc3c(C)nn(C)c3C)cc2)cc(OC)c1OC [DDD73501] | >1
62 | 4.8 | Cc1nn(C)c(C)c1N[S+](=O)([O-])c1ccc(CNc2ccc(Oc3ccccc3)cc2)cc1 [DDD73502] | >1
63 | 9.7 | Cc1nn(C)c(C)c1N[S+](=O)([O-])c1ccc(CNc2ccc(C(C)C)cc2)cc1 [DDD73505] | >1
